According to paper PMC10865860 (mBio, 2023):

Test system: SARS-CoV-2 Omicron subvariant XBB.1.16
Set-up: species or system K18-hACE2 mice
Settings: mouse, in vivo

COc1ccccc1C1CC1COC(=O)NC(CC(C)C)C(=O)NC(CC1CCNC1=O)C(O)S(=O)(=O)O (stereo not shown) [11d]
body weight loss compared to vehicle: reduced weight losses
lung edema average score: < 0.5
viral titers in nasal wash, nasal turbinate, and lungs compared to vehicle: significantly lower
fatality by 14 days after virus infection (ip): 20%
